Reference: ChEMBL document CHEMBL1201862, “PubChem BioAssay data set” (2004)
Activity calls are given as the source filed them.

Experiments:
[1] = target: T1, Carboxy-terminal domain RNA polymerase II polypeptide A small phosphatase 1 (Homo sapiens, UniProt Q9GZU7); experiment: inhibitors of CTDSP1, concentration-response testing, biochemical assay, absorbance-based, actives from ultra-high-throughput screening (AID 540297); assay type: functional
T1 sequence (Q9GZU7 whole entry): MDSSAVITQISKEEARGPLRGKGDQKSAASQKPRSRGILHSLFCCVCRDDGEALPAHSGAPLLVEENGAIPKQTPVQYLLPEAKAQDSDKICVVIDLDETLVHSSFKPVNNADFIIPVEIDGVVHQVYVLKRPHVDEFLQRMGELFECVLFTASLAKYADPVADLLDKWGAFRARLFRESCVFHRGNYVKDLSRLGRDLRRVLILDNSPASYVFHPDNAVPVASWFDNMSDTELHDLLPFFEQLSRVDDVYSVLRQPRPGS

[2] = target: Beta-adrenergic receptor kinase 1 (Homo sapiens, UniProt P25098); experiment: GRK2 inhibitors displacing RNA aptamer, dose response, biochemical, flow cytometry beads, FAM-aptamer, powder set 1 (AID 588720)
HEK293 [3] = experiment: cells; assay type: functional, cell-based; conditions: Homo sapiens
[4] = target: Nucleotide-binding oligomerization domain-containing protein 2 (Homo sapiens, UniProt Q9HC29); experiment: NOD2 signaling inhibitors, cell-based, luminescence, uHTS, HEK293 (AID 1566); assay type: functional
[5] = nonselective inhibitors of cellular cAMP signaling, dose response, counter-screen for MC4R biased antagonist project, cell-based, TR-FRET cAMP detection (AID 602305); assay type: functional;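 note: U2OS cells stimulated with forskolin near its EC80 as the cAMP inducer; potency is for inhibition of forskolin-stimulated cAMP signaling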
[6] = Intein inhibitors as potential Tuberculosis drugs, a cytotoxicity screen. [Related pubchem assays (depositor defined):AID2221, AID2223, AID434968, AID435010, AID449749, AID449750, AID489010]; assay type: functional
HEK293 [7] = experiment: NOD1 signaling inhibitors, primary screen, cell-based, luminescence, uHTS (AID 1578); assay type: functional; conditions: Homo sapiens
HEK293 [8] = experiment: NOD2 signaling inhibitors in MDP-stimulated cells, cell-based, uHTS, luminescence (AID 2001); assay type: functional; conditions: Homo sapiens
[9] = target: T2, Replicative DNA helicase DnaB (Mycobacterium tuberculosis, UniProt P9WMR3); experiment: DnaB intein splicing inhibitors, dose response, biochemical, cell-free fluorescence (AID 449749); assay type: functional
T2 sequence (P9WMR3 whole entry): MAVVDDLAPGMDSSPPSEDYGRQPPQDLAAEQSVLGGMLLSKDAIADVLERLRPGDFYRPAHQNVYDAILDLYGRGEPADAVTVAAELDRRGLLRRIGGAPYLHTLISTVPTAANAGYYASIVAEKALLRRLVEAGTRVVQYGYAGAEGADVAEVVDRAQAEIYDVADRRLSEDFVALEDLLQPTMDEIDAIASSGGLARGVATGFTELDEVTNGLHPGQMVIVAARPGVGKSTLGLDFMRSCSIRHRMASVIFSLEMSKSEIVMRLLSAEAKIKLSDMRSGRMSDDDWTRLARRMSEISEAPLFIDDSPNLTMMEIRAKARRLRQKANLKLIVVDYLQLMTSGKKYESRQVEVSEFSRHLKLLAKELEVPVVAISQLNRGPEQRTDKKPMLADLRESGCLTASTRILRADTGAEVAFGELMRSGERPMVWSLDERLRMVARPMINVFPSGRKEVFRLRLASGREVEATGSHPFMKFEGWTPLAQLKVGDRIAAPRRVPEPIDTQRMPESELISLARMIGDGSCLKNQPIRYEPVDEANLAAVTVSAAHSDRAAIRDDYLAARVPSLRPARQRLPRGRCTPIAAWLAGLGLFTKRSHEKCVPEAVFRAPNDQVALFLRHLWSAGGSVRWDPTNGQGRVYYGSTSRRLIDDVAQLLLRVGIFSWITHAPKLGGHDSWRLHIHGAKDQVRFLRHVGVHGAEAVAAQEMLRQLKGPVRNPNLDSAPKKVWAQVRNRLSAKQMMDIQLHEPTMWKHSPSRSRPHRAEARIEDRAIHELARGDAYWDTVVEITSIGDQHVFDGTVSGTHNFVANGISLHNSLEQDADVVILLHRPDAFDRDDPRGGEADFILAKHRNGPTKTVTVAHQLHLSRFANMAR

[10] = target: Sphingosine 1-phosphate receptor 1 (Homo sapiens, UniProt P21453); assay type: functional;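 note: Tango beta-arrestin reporter U2OS cells stimulated with S1P near its EC80; inhibitor potency meaning antagonism of receptor activation by the natural agonist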
HEK293 [11] = experiment: cells; assay type: functional, cell-based; conditions: Homo sapiens; remark: listed apart in the source
HEK293 [12] = experiment: cells; assay type: functional, cell-based; conditions: Homo sapiens; remark: listed apart in the source
[13] = target: Sphingosine 1-phosphate receptor 4 (Homo sapiens, UniProt O95977); experiment: Fluorescence dose response cell-based high throughput screening assay for antagonists of the Sphingosine 1-Phosphate Receptor 4 (S1P4). [Related pubchem assays: 1524 (Confirmation in triplicates.), 1510 (Primary screen.)]; assay type: functional
[14] = cytotoxicity toward DRD oncogenic fibroblasts, dose response, cell-based, non-viral oncogenic, luminescence (AID 1934); assay type: functional; conditions: Homo sapiens
Protein RecA = target: T3, Protein RecA (Mycobacterium tuberculosis, UniProt P9WHJ3); experiment: Fluorescence Cell-Free Homogeneous Dose Retest to Identify Inhibitors of RecA-Intein Splicing Activity. [Related pubchem assays (depositor defined):AID2097, AID2223, AID489010, AID492950]; assay type: functional
T3 sequence (P9WHJ3 whole entry): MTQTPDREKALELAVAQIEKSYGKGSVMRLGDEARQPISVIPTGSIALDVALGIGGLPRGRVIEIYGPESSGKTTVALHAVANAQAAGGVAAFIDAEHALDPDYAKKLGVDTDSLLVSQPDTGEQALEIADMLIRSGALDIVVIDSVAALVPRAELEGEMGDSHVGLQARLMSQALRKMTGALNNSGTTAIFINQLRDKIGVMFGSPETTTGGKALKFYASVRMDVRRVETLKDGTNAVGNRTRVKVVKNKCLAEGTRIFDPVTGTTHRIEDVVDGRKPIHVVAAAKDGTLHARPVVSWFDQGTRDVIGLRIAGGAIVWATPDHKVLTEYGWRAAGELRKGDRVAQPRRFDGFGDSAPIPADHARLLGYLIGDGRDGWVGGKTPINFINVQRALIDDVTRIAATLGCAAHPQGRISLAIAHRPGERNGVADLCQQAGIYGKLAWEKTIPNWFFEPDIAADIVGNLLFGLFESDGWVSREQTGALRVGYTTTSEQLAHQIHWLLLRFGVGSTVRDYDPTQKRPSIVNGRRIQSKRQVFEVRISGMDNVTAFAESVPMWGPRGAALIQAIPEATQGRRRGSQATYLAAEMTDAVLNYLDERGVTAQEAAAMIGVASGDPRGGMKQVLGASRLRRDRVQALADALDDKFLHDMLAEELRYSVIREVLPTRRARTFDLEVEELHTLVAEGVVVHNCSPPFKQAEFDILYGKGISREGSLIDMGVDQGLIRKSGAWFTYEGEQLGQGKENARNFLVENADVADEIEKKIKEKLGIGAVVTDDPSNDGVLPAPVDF

BJ [15] = experiment: cells; assay type: functional, cell-based; conditions: Homo sapiens
BJ [16] = experiment: cytotoxicity toward BJ-TERT-LT-ST fibroblasts, dose response, cell-based, RAS-independent, luminescence (AID 1935); assay type: functional; conditions: Homo sapiens;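 note: BJ fibroblasts immortalized with TERT plus LT and ST oncogenes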
BJ [17] = experiment: cytotoxicity toward BJ-TERT fibroblasts, dose response, cell-based, RAS-independent, luminescence (AID 1933); assay type: functional; conditions: Homo sapiens
Melanocortin receptor 4 = Melanocortin receptor 4 (Homo sapiens, UniProt P32245); experiment: MC4R antagonist potency on cAMP, dose response, cell-based, TR-FRET, biased antagonists (AID 602298); assay type: functional;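 note: antagonist potency against agonist-stimulated cAMP production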
[18] = target: Nuclear receptor subfamily 0 group B member 1 (Homo sapiens, UniProt P51843); experiment: Luminescence-based cell-based high throughput dose response assay for inhibitors of the orphan nuclear receptor subfamily 0, group B, member 1 (DAX1; NR0B1). [Related pubchem assays (depositor defined):AID504766, AID504790]; assay type: functional
H4 = experiment: Luminescence Cell-Based Dose Response HTS to Identify Activators of 5'UTR Stem-Loop Driven Prion Protein mRNA Translation in H4 Neuroglioblastoma Cells. [Related pubchem assays: 1829 (Project Summary), 1814 (Primary HTS)]; assay type: functional; conditions: Homo sapiens
[19] = Luminescence Cell-Based Dose Response HTS to Identify Activators of Luciferase Translation or Activity in H4 […] Cells. [Related pubchem assays: 1829 (Project Summary), 1814 (Primary HTS)]; assay type: functional
[20] = Luminescence Cell-Based Dose Confirmation HTS to Identify Activators of 5'UTR Stem-Loop Driven Alpha-Synuclein mRNA Translation in H4 Neuroglioblastoma Cells. [Related pubchem assays: 1829 (Project Summary), 1814 (Primary HTS)]; assay type: functional
HEK293 [21] = experiment: cells; assay type: functional, cell-based; conditions: Homo sapiens; remark: listed apart in the source
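Throughout, for CC50: cells exposed to compound for 72 hours before luminescence readout.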

Chain of Nuclear receptor subfamily 0 group B member 1 (P51843 whole entry): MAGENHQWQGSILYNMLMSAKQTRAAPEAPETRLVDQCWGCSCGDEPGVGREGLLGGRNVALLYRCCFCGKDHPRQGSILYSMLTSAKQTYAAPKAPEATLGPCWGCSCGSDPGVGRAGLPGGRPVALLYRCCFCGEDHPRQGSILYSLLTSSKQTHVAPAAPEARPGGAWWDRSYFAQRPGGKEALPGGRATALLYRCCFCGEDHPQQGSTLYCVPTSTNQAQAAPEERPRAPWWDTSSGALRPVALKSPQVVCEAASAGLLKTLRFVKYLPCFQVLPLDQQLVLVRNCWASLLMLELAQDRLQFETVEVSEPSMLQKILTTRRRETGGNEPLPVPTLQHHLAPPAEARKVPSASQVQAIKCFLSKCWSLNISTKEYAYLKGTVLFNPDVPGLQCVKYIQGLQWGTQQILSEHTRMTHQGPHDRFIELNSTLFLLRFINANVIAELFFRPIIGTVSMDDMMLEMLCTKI
Chain of Nucleotide-binding oligomerization domain-containing protein 2 (Q9HC29 whole entry, the tested form may be a part): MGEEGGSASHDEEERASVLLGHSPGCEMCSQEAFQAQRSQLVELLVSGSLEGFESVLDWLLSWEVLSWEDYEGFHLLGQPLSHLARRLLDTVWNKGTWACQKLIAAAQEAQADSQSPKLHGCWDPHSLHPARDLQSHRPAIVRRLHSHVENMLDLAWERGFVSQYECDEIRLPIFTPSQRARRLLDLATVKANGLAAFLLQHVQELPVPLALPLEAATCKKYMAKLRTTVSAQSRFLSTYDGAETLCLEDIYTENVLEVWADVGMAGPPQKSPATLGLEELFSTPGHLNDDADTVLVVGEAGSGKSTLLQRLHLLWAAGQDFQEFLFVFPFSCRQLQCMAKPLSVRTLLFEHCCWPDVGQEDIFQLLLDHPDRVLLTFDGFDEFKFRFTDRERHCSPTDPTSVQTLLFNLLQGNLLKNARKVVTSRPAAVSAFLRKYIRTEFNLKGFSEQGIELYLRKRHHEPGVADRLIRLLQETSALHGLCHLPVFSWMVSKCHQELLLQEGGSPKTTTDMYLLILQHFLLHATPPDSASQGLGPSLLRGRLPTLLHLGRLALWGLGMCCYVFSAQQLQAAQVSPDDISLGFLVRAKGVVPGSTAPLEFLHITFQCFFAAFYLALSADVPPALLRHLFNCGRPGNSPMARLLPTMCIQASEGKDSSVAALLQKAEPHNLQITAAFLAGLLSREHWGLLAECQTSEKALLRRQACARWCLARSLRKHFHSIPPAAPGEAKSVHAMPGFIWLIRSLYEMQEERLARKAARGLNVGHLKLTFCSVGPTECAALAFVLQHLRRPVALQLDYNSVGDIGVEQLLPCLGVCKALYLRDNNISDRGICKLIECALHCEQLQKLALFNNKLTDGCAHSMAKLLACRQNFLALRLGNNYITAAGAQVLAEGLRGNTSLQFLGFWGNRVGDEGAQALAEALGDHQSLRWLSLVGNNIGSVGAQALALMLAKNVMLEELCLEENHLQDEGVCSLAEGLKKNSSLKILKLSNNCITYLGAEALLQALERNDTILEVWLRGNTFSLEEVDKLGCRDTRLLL
Chain of Beta-adrenergic receptor kinase 1 (P25098 whole entry): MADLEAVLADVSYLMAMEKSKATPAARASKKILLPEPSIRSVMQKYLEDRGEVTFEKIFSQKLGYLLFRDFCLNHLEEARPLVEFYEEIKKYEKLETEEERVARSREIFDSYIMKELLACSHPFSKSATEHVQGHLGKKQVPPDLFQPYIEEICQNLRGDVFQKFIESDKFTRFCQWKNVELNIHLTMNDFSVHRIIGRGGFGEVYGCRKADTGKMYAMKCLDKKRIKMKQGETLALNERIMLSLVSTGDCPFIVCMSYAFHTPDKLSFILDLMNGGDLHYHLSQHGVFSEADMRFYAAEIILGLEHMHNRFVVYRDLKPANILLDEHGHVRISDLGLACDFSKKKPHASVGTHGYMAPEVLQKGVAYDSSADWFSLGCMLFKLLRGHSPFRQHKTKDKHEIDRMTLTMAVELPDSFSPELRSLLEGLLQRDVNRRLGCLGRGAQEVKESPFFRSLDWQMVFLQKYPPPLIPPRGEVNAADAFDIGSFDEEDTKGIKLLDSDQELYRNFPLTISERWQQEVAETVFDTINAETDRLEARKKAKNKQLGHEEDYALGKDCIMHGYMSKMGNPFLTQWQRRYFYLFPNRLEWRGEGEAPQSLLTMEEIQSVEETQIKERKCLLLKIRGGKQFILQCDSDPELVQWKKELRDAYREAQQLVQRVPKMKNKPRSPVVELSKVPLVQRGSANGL
Chain of Melanocortin receptor 4 (P32245 whole entry): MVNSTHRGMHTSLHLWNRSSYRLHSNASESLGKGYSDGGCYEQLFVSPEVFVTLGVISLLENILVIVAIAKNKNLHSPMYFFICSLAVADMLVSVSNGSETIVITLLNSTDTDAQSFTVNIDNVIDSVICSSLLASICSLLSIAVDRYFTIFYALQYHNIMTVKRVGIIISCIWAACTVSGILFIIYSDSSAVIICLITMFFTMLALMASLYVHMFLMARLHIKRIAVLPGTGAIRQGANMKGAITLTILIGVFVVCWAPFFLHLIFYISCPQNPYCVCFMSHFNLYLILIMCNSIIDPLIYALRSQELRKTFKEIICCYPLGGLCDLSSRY
Chain of Sphingosine 1-phosphate receptor 4 (O95977 whole entry): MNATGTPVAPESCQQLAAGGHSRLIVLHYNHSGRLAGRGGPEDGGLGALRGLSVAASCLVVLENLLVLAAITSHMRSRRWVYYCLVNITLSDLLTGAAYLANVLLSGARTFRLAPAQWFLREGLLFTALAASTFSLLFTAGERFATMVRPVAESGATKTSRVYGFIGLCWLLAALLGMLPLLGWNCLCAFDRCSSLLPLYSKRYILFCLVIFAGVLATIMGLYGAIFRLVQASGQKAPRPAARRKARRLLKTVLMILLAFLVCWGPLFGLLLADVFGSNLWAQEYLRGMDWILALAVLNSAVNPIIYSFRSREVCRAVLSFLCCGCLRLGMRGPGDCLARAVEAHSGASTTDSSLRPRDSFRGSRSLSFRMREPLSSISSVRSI
Chain of Sphingosine 1-phosphate receptor 1 (P21453 whole entry): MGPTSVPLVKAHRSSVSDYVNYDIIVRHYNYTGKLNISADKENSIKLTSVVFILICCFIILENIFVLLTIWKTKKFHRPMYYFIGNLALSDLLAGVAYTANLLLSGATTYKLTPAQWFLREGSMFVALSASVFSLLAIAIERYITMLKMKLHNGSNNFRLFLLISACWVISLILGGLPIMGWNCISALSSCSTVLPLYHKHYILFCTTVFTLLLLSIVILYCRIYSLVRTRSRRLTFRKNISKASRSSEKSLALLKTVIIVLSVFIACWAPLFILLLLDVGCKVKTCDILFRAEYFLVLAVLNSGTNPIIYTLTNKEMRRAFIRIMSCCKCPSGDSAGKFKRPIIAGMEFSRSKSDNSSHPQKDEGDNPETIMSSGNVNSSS

**Q.** With `C#CCSc1nc2sc3c(c2c(=O)n1C)CCC3` as the molecule, how does the IC50 [1] read?
**A.** 6.45 µM (active)

**Q.** And the EC50 [2]?
**A.** 2.72 µM (active)

**Q.** With `CC(=O)n1cc(N(C(=O)CCl)c2ccc(C)cc2)c2ccccc21` as the molecule, how does the IC50 (HEK293 [3]) read?
**A.** 3.22 µM (active)

**Q.** What about the EC50 [4] of the same molecule?
**A.** > 20 µM (inactive)

**Q.** What about the IC50 [5] of the same molecule?
**A.** > 64.6 µM (inactive)

**Q.** What about the CC50 [6] of the same molecule?
**A.** 830 nM (active)

**Q.** And the EC50 (HEK293 [7])?
**A.** 16.2 µM (active)

**Q.** What about the IC50 (HEK293 [8]) of the same molecule?
**A.** 5.38 µM (active)

**Q.** What about the AC50 [9] of the same molecule?
**A.** 2.53 µM (active)

**Q.** And the IC50 [10]?
**A.** 14.5 µM (not active)

**Q.** What about the IC50 (HEK293 [11]) of the same molecule?
**A.** 11.5 µM (active)

**Q.** What about the IC50 (HEK293 [12]) of the same molecule?
**A.** > 20 µM (inactive)

**Q.** And the IC50 [13]?
**A.** 1.3 µM (active)

**Q.** What about the EC50 [14] of the same molecule?
**A.** 1.2 µM (active)

**Q.** And the EC50 (Protein RecA)?
**A.** 248 nM (active)

**Q.** And the EC50 (BJ [15])?
**A.** 2.65 µM (inconclusive)

**Q.** And the EC50 (BJ [16])?
**A.** 5.27 µM (inconclusive)

**Q.** And the EC50 (BJ [17])?
**A.** 812 nM (inconclusive)

**Q.** What about the IC50 (Melanocortin receptor 4) of the same molecule?
**A.** > 64.6 µM (inactive)

**Q.** Which results are given for `COC(=O)c1cc2c(s1)-c1ccc(OC)cc1CC2`?
**A.** IC50 [18]: > 67.5 µM (inactive); EC50 (H4): 46.2 µM (active); EC50 [19]: 18.7 µM (active); EC50 [20]: 9.47 µM (active); IC50 (HEK293 [21]): > 22.5 µM (inactive)
